Our source for the EC50 values is US12139520B2 (priority 2020, dated 2024).

Usually EC50 stands for the concentration that produces a half-maximal response.

Numbered stars: 1 amine (or outer) side, 2 acyl side, 3 side chain; on linkers, the order of the positions; unused ones are H or OH. Bridge positions count the residues as written; N and C are the ends. Peptide text beside a SMILES is read from it. * marks the point of attachment. C20 diacid = O=C(O)CCCCCCCCCCCCCCCCCCC(=O)*; γGlu = O=C(O)[C@H](CCC(=O)[*:2])N[*:1]

This assay has as its target T1, hAMY3 receptor (Homo sapiens, UniProt O60896+P30988).
T1 sequence (P30988 25-474): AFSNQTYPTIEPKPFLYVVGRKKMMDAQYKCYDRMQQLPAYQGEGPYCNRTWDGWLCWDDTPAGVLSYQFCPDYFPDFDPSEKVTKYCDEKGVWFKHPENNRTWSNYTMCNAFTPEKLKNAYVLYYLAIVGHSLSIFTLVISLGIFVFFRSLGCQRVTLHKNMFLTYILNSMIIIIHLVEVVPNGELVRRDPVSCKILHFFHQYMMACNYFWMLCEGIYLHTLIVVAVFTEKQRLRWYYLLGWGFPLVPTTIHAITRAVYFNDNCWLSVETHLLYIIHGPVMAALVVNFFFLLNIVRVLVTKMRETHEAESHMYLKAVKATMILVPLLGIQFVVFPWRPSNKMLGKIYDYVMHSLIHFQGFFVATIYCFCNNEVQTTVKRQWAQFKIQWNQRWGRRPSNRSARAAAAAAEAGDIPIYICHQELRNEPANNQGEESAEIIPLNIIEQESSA
T1 sequence (O60896 24-148 partner): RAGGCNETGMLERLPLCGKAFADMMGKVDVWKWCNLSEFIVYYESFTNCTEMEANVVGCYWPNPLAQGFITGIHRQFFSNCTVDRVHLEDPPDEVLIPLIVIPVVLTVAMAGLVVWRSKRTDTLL
The assay is described as follows: cAMP assay for in vitro receptor activation, hAMY3-R. In kind it is cell-based. The note with it: cAMP assay, hAMY3 receptor; read-out: hAMY3R EC50. In short, it runs like this: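 Monoclonal cell line stably overexpressing human AMY3 receptor, 2000 cells/well in DPBS with 0.05% casein and 0.5 mM IBMX. Stimulated 30 min at room temperature with graded compound doses, human amylin as positive control. cAMP accumulation read by TR-FRET after one hour.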
On the technique in general: Changes in cAMP serve as a functional read-out for many G protein-coupled receptors.
For `CC[C@H](C)[C@H](NC(=O)[C@H](CCC(N)=O)NC(=O)[C@H](Cc1c[nH]cn1)NC(=O)[C@H](C)NC(=O)[C@H](CC(C)C)NC(=O)[C@H](CCCNC(=N)N)NC(=O)[C@H](CCC(N)=O)NC(=O)[C@@H](NC(=O)[C@@H](NC(=O)[C@@H]1CSSC[C@H](NC(=O)[C@H](CCCCN)NC(=O)CC[C@H](NC(=O)CCCCCCCCCCCCCCCCCCC(=O)O)C(=O)O)C(=O)N[C@@H](CC(N)=O)C(=O)N[C@@H](Cc2ccccc2)C(=O)N[C@@H](C)C(=O)N[C@@H]([C@@H](C)O)C(=O)N1)[C@@H](C)O)C(C)C)C(=O)N[C@@H](Cc1ccc(O)cc1)C(=O)N[C@@H](CCC(N)=O)C(=O)N[C@@H](Cc1ccccc1)C(=O)N[C@H](C(=O)N[C@@H](CC(=O)O)C(=O)N[C@@H](CCCCN)C(=O)N[C@@H](CC(=O)O)C(=O)N[C@@H](CCCCN)C(=O)N[C@@H](CC(=O)O)C(=O)N[C@@H](CC(N)=O)C(=O)N[C@H](C(=O)N[C@@H](C)C(=O)N1CCC[C@H]1C(=O)N[C@@H](CCCNC(=N)N)C(=O)N[C@H](C(=O)N[C@@H](CCCCN)C(=O)N[C@H](C(=O)NCC(=O)N[C@@H](CO)C(=O)N[C@@H](CC(N)=O)C(=O)NCC(=O)N[C@@H](Cc1ccc(O)cc1)C(N)=O)C(C)C)[C@@H](C)O)C(C)C)[C@@H](C)O` [compound 378] ({C20 diacid-γGlu}-KCNFATCTVQRLAHQIYQFTDKDKDNVAPRTKVGSNGY-NH2; disulfide 2-7), the concentration giving a half-maximal response (EC50) stood at 0.027 nM. With `CC[C@H](C)[C@H](NC(=O)[C@H](CC(N)=O)NC(=O)[C@@H](NC(=O)[C@H](CCCNC(=N)N)NC(=O)[C@@H]1CCCN1C(=O)[C@H](C)NC(=O)[C@@H](NC(=O)[C@H](CC(N)=O)NC(=O)[C@H](CC(=O)O)NC(=O)[C@H](CCCCN)NC(=O)[C@H](CC(=O)O)NC(=O)[C@H](CCCCN)NC(=O)[C@H](CC(=O)O)NC(=O)[C@@H](NC(=O)[C@H](Cc1ccccc1)NC(=O)[C@H](CCC(N)=O)NC(=O)[C@H](Cc1ccc(O)cc1)NC(=O)[C@@H](NC(=O)[C@H](CCC(N)=O)NC(=O)[C@H](Cc1c[nH]cn1)NC(=O)[C@H](C)NC(=O)[C@H](CC(C)C)NC(=O)[C@H](CCCNC(=N)N)NC(=O)[C@H](CCC(N)=O)NC(=O)[C@@H](NC(=O)[C@@H](NC(=O)[C@@H]1CSSC[C@H](NC(=O)CN)C(=O)N[C@@H](CCCNC(=N)N)C(=O)N[C@@H](Cc2ccccc2)C(=O)NCC(=O)N[C@@H]([C@@H](C)O)C(=O)N1)[C@@H](C)O)C(C)C)[C@@H](C)CC)[C@@H](C)O)C(C)C)[C@@H](C)O)C(=O)NCC(=O)N1CCC[C@H]1C(=O)N[C@@H](CCC(N)=O)C(=O)NCC(=O)N[C@@H](Cc1ccc(O)cc1)C(N)=O` [compound 379] (H-GCRFGTCTVQRLAHQIYQFTDKDKDNVAPRTNIGPQGY-NH2; disulfide 2-7) the figure was 0.029 nM; with `CC[C@H](C)[C@H](NC(=O)[C@H](CCC(N)=O)NC(=O)[C@H](Cc1c[nH]cn1)NC(=O)[C@H](C)NC(=O)[C@H](CC(C)C)NC(=O)[C@H](CCCNC(=N)N)NC(=O)[C@H](CCC(N)=O)NC(=O)[C@@H](NC(=O)[C@@H](NC(=O)[C@@H]1CSSC[C@H](NC(=O)CNC(=O)CC[C@H](NC(=O)CCCCCCCCCCCCCCCCCCC(=O)O)C(=O)O)C(=O)N[C@@H](CCCNC(=N)N)C(=O)N[C@@H](Cc2ccccc2)C(=O)N[C@@H](C)C(=O)N[C@@H]([C@@H](C)O)C(=O)N1)[C@@H](C)O)C(C)C)C(=O)N[C@@H](Cc1ccc(O)cc1)C(=O)N[C@@H](CCC(N)=O)C(=O)N[C@@H](Cc1ccccc1)C(=O)N[C@H](C(=O)N[C@@H](CC(=O)O)C(=O)N[C@@H](CCCCN)C(=O)N[C@@H](CC(=O)O)C(=O)N[C@@H](CCCCN)C(=O)N[C@@H](CC(=O)O)C(=O)N[C@@H](CC(N)=O)C(=O)N[C@H](C(=O)N[C@@H](C)C(=O)N1CCC[C@H]1C(=O)N[C@@H](CCCNC(=N)N)C(=O)N[C@H](C(=O)N[C@@H](CCCCN)C(=O)N[C@H](C(=O)NCC(=O)N1CCC[C@H]1C(=O)N[C@@H](CCC(N)=O)C(=O)NCC(=O)N[C@@H](Cc1ccc(O)cc1)C(N)=O)C(C)C)[C@@H](C)O)C(C)C)[C@@H](C)O` [compound 380] ({C20 diacid-γGlu}-GCRFATCTVQRLAHQIYQFTDKDKDNVAPRTKVGPQGY-NH2; disulfide 2-7), 0.031 nM.

As to `CC[C@H](C)[C@H](NC(=O)[C@H](CC(N)=O)NC(=O)[C@@H](NC(=O)[C@H](CCCNC(=N)N)NC(=O)[C@@H]1CCCN1C(=O)[C@H](C)NC(=O)[C@@H](NC(=O)[C@H](CC(N)=O)NC(=O)[C@H](CC(=O)O)NC(=O)[C@H](CCCCN)NC(=O)[C@H](CC(=O)O)NC(=O)[C@H](CCCCN)NC(=O)[C@H](CC(=O)O)NC(=O)[C@@H](NC(=O)[C@H](Cc1ccccc1)NC(=O)[C@H](CCC(N)=O)NC(=O)[C@H](Cc1ccc(O)cc1)NC(=O)[C@@H](NC(=O)[C@H](CCC(N)=O)NC(=O)[C@H](Cc1c[nH]cn1)NC(=O)[C@H](C)NC(=O)[C@H](CC(C)C)NC(=O)[C@H](CCCNC(=N)N)NC(=O)[C@H](CCC(N)=O)NC(=O)[C@@H](NC(=O)[C@@H](NC(=O)[C@@H]1CSSC[C@H](NC(=O)CN)C(=O)N[C@@H](CCCNC(=N)N)C(=O)N[C@@H](Cc2ccccc2)C(=O)NCC(=O)N[C@@H]([C@@H](C)O)C(=O)N1)[C@@H](C)O)C(C)C)[C@@H](C)CC)[C@@H](C)O)C(C)C)[C@@H](C)O)C(=O)NCC(=O)N1CCC[C@H]1C(=O)N[C@@H](CC(N)=O)C(=O)NCC(=O)N[C@@H](Cc1ccc(O)cc1)C(N)=O` [compound 381] (H-GCRFGTCTVQRLAHQIYQFTDKDKDNVAPRTNIGPNGY-NH2; disulfide 2-7; N-terminus assumed), the half-maximal effective concentration (EC50) was determined as 0.032 nM.

As to `CC[C@H](C)[C@H](NC(=O)[C@H](CC(N)=O)NC(=O)[C@H](CO)NC(=O)[C@H](CCCNC(=N)N)NC(=O)[C@@H]1CCCN1C(=O)[C@H](C)NC(=O)[C@@H](NC(=O)[C@H](CC(N)=O)NC(=O)[C@H](CC(=O)O)NC(=O)[C@H](CCCCN)NC(=O)[C@H](CC(=O)O)NC(=O)[C@H](CCCCN)NC(=O)[C@H](CC(=O)O)NC(=O)[C@@H](NC(=O)[C@H](Cc1ccccc1)NC(=O)[C@H](CCC(N)=O)NC(=O)[C@H](Cc1ccc(O)cc1)NC(=O)[C@@H](NC(=O)[C@H](CCC(N)=O)NC(=O)[C@H](Cc1c[nH]cn1)NC(=O)[C@H](C)NC(=O)[C@H](CC(C)C)NC(=O)[C@H](CCCNC(=N)N)NC(=O)[C@H](CCC(N)=O)NC(=O)[C@@H](NC(=O)[C@@H](NC(=O)[C@@H]1CSSC[C@H](NC(=O)CN)C(=O)N[C@@H](CCCNC(=N)N)C(=O)N[C@@H](Cc2ccccc2)C(=O)NCC(=O)N[C@@H]([C@@H](C)O)C(=O)N1)[C@@H](C)O)C(C)C)[C@@H](C)CC)[C@@H](C)O)C(C)C)C(=O)NCC(=O)N1CCC[C@H]1C(=O)N[C@@H](CCC(N)=O)C(=O)NCC(=O)N[C@@H](Cc1ccc(O)cc1)C(N)=O` [compound 382] (H-GCRFGTCTVQRLAHQIYQFTDKDKDNVAPRSNIGPQGY-NH2; disulfide 2-7), the EC50 was determined as 0.034 nM.
